Legend:
[1] = system: barnyardgrass; assay: Test A pre-/postemergence herbicide test; assay type: in vivo, Echinochloa crus-galli
How it was run: (§1)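 Visual 0–100 ratings (100 = complete control) made about 10 days after treatment, greenhouse-held plants compared with untreated controls. Treatments: postemergence sprays on one- to two-leaf plants (2–10 cm tall) and preemergence directed soil sprays after planting in loam–sand, chemicals formulated in non-phytotoxic solvent containing surfactant.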

[2] = system: kochia; assay: Test A pre-/postemergence herbicide test; assay type: in vivo, Kochia scoparia
How it was run: as §1

[3] = system: ragweed; assay: Test A pre-/postemergence herbicide test; assay type: in vivo, Ambrosia elatior
How it was run: as §1

[4] = system: ryegrass, Italian; assay: Test A pre-/postemergence herbicide test; assay type: in vivo, Lolium multiflorum
How it was run: as §1

[5] = system: giant foxtail; assay: Test A pre-/postemergence herbicide test; assay type: in vivo, Setaria faberii
How it was run: as §1

[6] = system: pigweed; assay: Test A pre-/postemergence herbicide test; assay type: in vivo, Amaranthus retroflexus
How it was run: as §1

[7] = system: wheat; assay: Test A pre-/postemergence herbicide test; assay type: in vivo, Triticum aestivum; conditions: Postemergence; for Wheat plant response rating (0 to 100 scale, 0 is no effect, 100 is complete control): 500 g ai/ha
How it was run: as §1

[8] = system: corn; assay: Test A pre-/postemergence herbicide test; assay type: in vivo, Zea mays; conditions: Postemergence; for Corn plant response rating (0 to 100 scale, 0 is no effect, 100 is complete control): 500 g ai/ha
How it was run: as §1

[9] = system: blackgrass; assay: Test A postemergence herbicide test; assay type: in vivo, Alopecurus myosuroides; conditions: for Blackgrass plant response rating (0 to 100 scale, 0 is no effect, 100 is complete control): 500 g ai/ha
How it was run: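 Ratings compare treated with untreated plants roughly 10 days after a postemergence application made at the one- to two-leaf stage. Scoring uses 0–100, where 0 means no effect and 100 complete control.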

[10] = system: galium; assay: Test A postemergence herbicide test; assay type: in vivo, Galium aparine; conditions: for Galium plant response rating (0 to 100 scale, 0 is no effect, 100 is complete control): 500 g ai/ha
Description: At the same time, plants selected from these crop and weed species and also blackgrass (Alopecurus myosuroides), and galium (catchweed bedstraw, Galium aparine) were planted in pots containing the same blend of loam soil and sand and treated with postemergence applications of test chemicals formulated in the same manner. Plants ranged in height from 2 to 10 cm and were in the one- to two-leaf stage for the postemergence treatment. Treated plants and untreated controls were maintained in a greenhouse for approximately 10 days, after which time all treated plants were compared to untreated controls and visually evaluated for injury. Plant response ratings, summarized in Table A, are based on a 0 to 100 scale where 0 is no effect and 100 is complete control. A dash (-) response means no test result.

[11] = 125 g ai/ha, visual rating, 0 to 100 scale, 0 no effect, 100 complete control, approximately 10 days, preemergence
[12] = Postemergence, 125 g ai/ha, 0 to 100 scale, 0 is no effect, 100 is complete control
[13] = preemergence, 500 g ai/ha, 0 to 100 scale, 0 is no effect and 100 is complete control
[14] = 125 g ai/ha, 0 to 100 scale, 0 is no effect, 100 is complete control
[15] = Postemergence, 1000 g ai/ha, 0 to 100 scale (0 no effect, 100 complete control)
[16] = preemergence, 1000 g ai/ha, 0 to 100 scale (0 no effect, 100 complete control)
[17] = preemergence, 1000 g ai/ha, 0 to 100 scale
[18] = 1000 g ai/ha, 0 to 100 scale (0 no effect, 100 complete control)

Cc1ccc(NC(=O)C2C(=O)NCC2c2cccc(C(F)(F)F)c2)cc1C(F)(F)F (racemic) [Compound 186]
0: Plant response rating, Barnyardgrass [1, 11] | Plant response rating, Barnyardgrass [1, 12] | Barnyardgrass plant response rating (0 to 100 scale, 0 is no effect, 100 is complete control) ([1]; Postemergence, 500 g ai/ha) | Plant response rating, Barnyardgrass [1, 13] | Plant response rating, Kochia [2, 11] | Plant response rating, Kochia [2, 12] | Kochia plant response rating (0 to 100 scale, 0 is no effect, 100 is complete control) ([2]; Postemergence, 500 g ai/ha) | Plant response rating, Kochia [2, 13] | Plant response rating, Ragweed [3, 11] | Plant response rating, Ragweed [3, 12] | Ragweed plant response rating (0 to 100 scale, 0 is no effect, 100 is complete control) ([3]; Postemergence, 500 g ai/ha) | Plant response rating, Ragweed [3, 13] | Plant response rating, Ryegrass, Italian [4, 11] | Plant response rating, Ryegrass, Italian [4, 12] | Ryegrass, Italian plant response rating (0 to 100 scale, 0 is no effect, 100 is complete control) ([4]; Postemergence, 500 g ai/ha) | Plant response rating, Ryegrass, Italian [4, 13] | Plant response rating, Foxtail, Giant [5, 11] | Plant response rating, Foxtail, Giant [5, 12] | Foxtail, Giant plant response rating (0 to 100 scale, 0 is no effect, 100 is complete control) ([5]; Postemergence, 500 g ai/ha) | Plant response rating, Foxtail, Giant [5, 13] | Plant response rating, Pigweed [6, 11] | Plant response rating, Pigweed [6, 12] | Pigweed plant response rating (0 to 100 scale, 0 is no effect, 100 is complete control) ([6]; Postemergence, 500 g ai/ha) | Plant response rating, Pigweed [6, 13] | Plant response rating, Wheat [7, 14] | Wheat plant response rating (0 to 100 scale, 0 is no effect, 100 is complete control) [7] | Plant response rating, Corn [8, 14] | Corn plant response rating (0 to 100 scale, 0 is no effect, 100 is complete control) [8] | Plant response rating, Blackgrass [9, 14] | Blackgrass plant response rating (0 to 100 scale, 0 is no effect, 100 is complete control) [9] | Plant response rating, Galium [10, 14] | Galium plant response rating (0 to 100 scale, 0 is no effect, 100 is complete control) [10]

COc1ccc(NC(=O)C2C(=O)NCC2c2cccc(C(F)(F)F)c2)cc1F (racemic) [Compound 188]
0: Plant response rating, Barnyardgrass [1, 11] | Plant response rating, Barnyardgrass [1, 12] | Barnyardgrass plant response rating (0 to 100 scale, 0 is no effect, 100 is complete control) ([1]; Postemergence, 500 g ai/ha) | Plant response rating, Barnyardgrass [1, 13] | Plant response rating, Kochia [2, 11] | Plant response rating, Kochia [2, 12] | Kochia plant response rating (0 to 100 scale, 0 is no effect, 100 is complete control) ([2]; Postemergence, 500 g ai/ha) | Plant response rating, Kochia [2, 13] | Plant response rating, Ragweed [3, 11] | Plant response rating, Ragweed [3, 12] | Ragweed plant response rating (0 to 100 scale, 0 is no effect, 100 is complete control) ([3]; Postemergence, 500 g ai/ha) | Plant response rating, Ragweed [3, 13] | Plant response rating, Ryegrass, Italian [4, 11] | Plant response rating, Ryegrass, Italian [4, 12] | Ryegrass, Italian plant response rating (0 to 100 scale, 0 is no effect, 100 is complete control) ([4]; Postemergence, 500 g ai/ha) | Plant response rating, Ryegrass, Italian [4, 13] | Plant response rating, Foxtail, Giant [5, 11] | Plant response rating, Foxtail, Giant [5, 12] | Foxtail, Giant plant response rating (0 to 100 scale, 0 is no effect, 100 is complete control) ([5]; Postemergence, 500 g ai/ha) | Plant response rating, Foxtail, Giant [5, 13] | Plant response rating, Pigweed [6, 11] | Plant response rating, Pigweed [6, 12] | Pigweed plant response rating (0 to 100 scale, 0 is no effect, 100 is complete control) ([6]; Postemergence, 500 g ai/ha) | Plant response rating, Pigweed [6, 13] | Plant response rating, Wheat [7, 14] | Wheat plant response rating (0 to 100 scale, 0 is no effect, 100 is complete control) [7] | Plant response rating, Corn [8, 14] | Corn plant response rating (0 to 100 scale, 0 is no effect, 100 is complete control) [8] | Plant response rating, Blackgrass [9, 14] | Blackgrass plant response rating (0 to 100 scale, 0 is no effect, 100 is complete control) [9] | Plant response rating, Galium [10, 14] | Galium plant response rating (0 to 100 scale, 0 is no effect, 100 is complete control) [10]

O=C1NCC(c2cccc(-c3ccccc3C(F)(F)F)c2)C1C(=O)Nc1ccccc1C(F)(F)F (stereo not drawn) [Compound 237]
0: Plant response rating, Kochia [2, 15] | Plant response rating, Kochia [2, 17] | Plant response rating, Ragweed [3, 15] | Plant response rating, Ragweed [3, 17] | Plant response rating, Ryegrass, Italian [4, 15] | Plant response rating, Ryegrass, Italian [4, 17] | Plant response rating, Foxtail, Giant [5, 15] | Plant response rating, Pigweed [6, 15] | Plant response rating, Pigweed [6, 17] | Plant response rating, Wheat [7, 18] | Plant response rating, Corn [8, 18] | Plant response rating, Blackgrass [9, 18] | Plant response rating, Galium [10, 18]
20: Plant response rating, Barnyardgrass [1, 15]
60: Plant response rating, Barnyardgrass [1, 16]
80: Plant response rating, Foxtail, Giant [5, 17]

O=C1NCC(c2cccc(-c3ccccc3F)c2)C1C(=O)Nc1ccccc1C(F)(F)F (stereo not drawn) [Compound 238]
90: Plant response rating, Foxtail, Giant [5, 17]
30: Plant response rating, Barnyardgrass [1, 15] | Plant response rating, Foxtail, Giant [5, 15]
50: Plant response rating, Barnyardgrass [1, 16]
0: Plant response rating, Kochia [2, 15] | Plant response rating, Kochia [2, 17] | Plant response rating, Ragweed [3, 15] | Plant response rating, Ragweed [3, 17] | Plant response rating, Ryegrass, Italian [4, 15] | Plant response rating, Ryegrass, Italian [4, 17] | Plant response rating, Pigweed [6, 15] | Plant response rating, Pigweed [6, 17] | Plant response rating, Wheat [7, 18] | Plant response rating, Corn [8, 18]
20: Plant response rating, Blackgrass [9, 18] | Plant response rating, Galium [10, 18]
